In PubChem BioAssay (NCI):
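Briefly, cells in 96-well plates were exposed to five compound concentrations for 48 h, and endpoints were estimated by linear interpolation. Here, GI50 denotes the concentration required for 50% inhibition of growth. TGI: concentration producing complete growth inhibition.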

Experiments:
Experiment in all cases: DTP human tumour cell line panel, 48 h
786-0 renal = test system: 786-0 renal
A498 renal = test system: A498 renal
A549 NSCLC = test system: A549 NSCLC
ACHN renal = test system: ACHN renal
BT-549 breast = test system: BT-549 breast
CAKI-1 renal = test system: CAKI-1 renal
CCRF-CEM leukemia = test system: CCRF-CEM leukemia
COLO 205 colon = test system: COLO 205 colon
DU-145 prostate = test system: DU-145 prostate
EKVX NSCLC = test system: EKVX NSCLC
HCC-2998 colon = test system: HCC-2998 colon
HCT-116 colon = test system: HCT-116 colon
HCT-15 colon = test system: HCT-15 colon
HL-60(TB) leukemia = test system: HL-60(TB) leukemia
HOP-62 NSCLC = test system: HOP-62 NSCLC
HOP-92 NSCLC = test system: HOP-92 NSCLC
HS 578T breast = test system: HS 578T breast
HT29 colon = test system: HT29 colon
IGROV1 ovarian = test system: IGROV1 ovarian
K-562 leukemia = test system: K-562 leukemia
KM12 colon = test system: KM12 colon
LOX IMVI melanoma = test system: LOX IMVI melanoma
MALME-3M melanoma = test system: MALME-3M melanoma
MCF7 breast = test system: MCF7 breast
MDA-MB-231 breast = test system: MDA-MB-231 breast
MDA-MB-435 = test system: MDA-MB-435
MOLT-4 leukemia = test system: MOLT-4 leukemia
NCI-H226 lung = test system: NCI-H226 lung
NCI-H23 lung = test system: NCI-H23 lung
NCI-H460 lung = test system: NCI-H460 lung
NCI-H522 lung = test system: NCI-H522 lung
NCI/ADR-RES ovarian = test system: NCI/ADR-RES ovarian
OVCAR-3 ovarian = test system: OVCAR-3 ovarian
OVCAR-4 ovarian = test system: OVCAR-4 ovarian
OVCAR-5 ovarian = test system: OVCAR-5 ovarian
PC-3 prostate = test system: PC-3 prostate
RPMI-8226 leukemia = test system: RPMI-8226 leukemia
RXF 393 renal = test system: RXF 393 renal
SF-268 CNS = test system: SF-268 CNS
SF-295 CNS = test system: SF-295 CNS
SF-539 CNS = test system: SF-539 CNS
SK-MEL-2 melanoma = test system: SK-MEL-2 melanoma
SK-MEL-28 melanoma = test system: SK-MEL-28 melanoma
SK-MEL-5 melanoma = test system: SK-MEL-5 melanoma
SK-OV-3 ovarian = test system: SK-OV-3 ovarian
SN12C renal = test system: SN12C renal
SNB-19 CNS = test system: SNB-19 CNS
SNB-75 CNS = test system: SNB-75 CNS
SR leukemia = test system: SR leukemia
SW-620 colon = test system: SW-620 colon
T-47D breast = test system: T-47D breast
TK-10 renal = test system: TK-10 renal
U251 CNS = test system: U251 CNS
UACC-257 melanoma = test system: UACC-257 melanoma
UACC-62 melanoma = test system: UACC-62 melanoma
UO-31 renal = test system: UO-31 renal

CCOC(=O)c1c(NC(=O)COc2cccc3cccnc23)sc(C(=O)N(C)C)c1C
GI50 (786-0 renal): 20.7 µM
TGI (786-0 renal): 79.7 µM
GI50 (A498 renal): 26.6 µM
TGI (A498 renal): 66.7 µM
GI50 (A549 NSCLC): 18.5 µM
TGI (A549 NSCLC): 46.2 µM
GI50 (ACHN renal): 24.1 µM
TGI (ACHN renal): 75.5 µM
GI50 (BT-549 breast): 14.1 µM
TGI (BT-549 breast): 32.4 µM
GI50 (CAKI-1 renal): 20.7 µM
TGI (CAKI-1 renal): 77.6 µM
GI50 (CCRF-CEM leukemia): 14.1 µM
TGI (CCRF-CEM leukemia): 82.3 µM
GI50 (COLO 205 colon): 17.4 µM
TGI (COLO 205 colon): 55.5 µM
GI50 (DU-145 prostate): 18.5 µM
TGI (DU-145 prostate): 39.2 µM
GI50 (EKVX NSCLC): 23 µM
TGI (EKVX NSCLC): 61 µM
GI50 (HCC-2998 colon): 17.2 µM
TGI (HCC-2998 colon): 35.2 µM
GI50 (HCT-116 colon): 14.6 µM
TGI (HCT-116 colon): 45.6 µM
GI50 (HCT-15 colon): 18.5 µM
TGI (HCT-15 colon): 48.5 µM
GI50 (HL-60(TB) leukemia): 18.1 µM
TGI (HL-60(TB) leukemia): 39.9 µM
GI50 (HOP-62 NSCLC): 19.6 µM
TGI (HOP-62 NSCLC): 58 µM
GI50 (HOP-92 NSCLC): 14.2 µM
TGI (HOP-92 NSCLC): 55.1 µM
GI50 (HS 578T breast): 15.5 µM
TGI (HS 578T breast): 44.6 µM
GI50 (HT29 colon): 25.4 µM
TGI (HT29 colon): 61.6 µM
GI50 (IGROV1 ovarian): 16.7 µM
TGI (IGROV1 ovarian): 49.2 µM
GI50 (K-562 leukemia): 19.7 µM
TGI (K-562 leukemia): 48.9 µM
GI50 (KM12 colon): 15.7 µM
TGI (KM12 colon): 35.3 µM
GI50 (LOX IMVI melanoma): 22 µM
TGI (LOX IMVI melanoma): 55.1 µM
GI50 (MALME-3M melanoma): 20.1 µM
TGI (MALME-3M melanoma): 46.6 µM
GI50 (MCF7 breast): 19 µM
TGI (MCF7 breast): 42.5 µM
GI50 (MDA-MB-231 breast): 23.7 µM
TGI (MDA-MB-231 breast): > 100 µM
GI50 (MDA-MB-435): 16.1 µM
TGI (MDA-MB-435): 31.5 µM
GI50 (MOLT-4 leukemia): 16.4 µM
TGI (MOLT-4 leukemia): 44.3 µM
GI50 (NCI-H226 lung): 17.9 µM
TGI (NCI-H226 lung): 50.1 µM
GI50 (NCI-H23 lung): 14.7 µM
TGI (NCI-H23 lung): 36.5 µM
GI50 (NCI-H460 lung): 13.6 µM
TGI (NCI-H460 lung): 33.3 µM
GI50 (NCI-H522 lung): 13.8 µM
TGI (NCI-H522 lung): 30.3 µM
GI50 (NCI/ADR-RES ovarian): 6 µM
TGI (NCI/ADR-RES ovarian): 34.3 µM
GI50 (OVCAR-3 ovarian): 20.8 µM
TGI (OVCAR-3 ovarian): 69.8 µM
GI50 (OVCAR-4 ovarian): 22.1 µM
TGI (OVCAR-4 ovarian): 65.8 µM
GI50 (OVCAR-5 ovarian): 17.4 µM
TGI (OVCAR-5 ovarian): 37.3 µM
GI50 (PC-3 prostate): 17.5 µM
TGI (PC-3 prostate): 63 µM
GI50 (RPMI-8226 leukemia): 7.93 µM
TGI (RPMI-8226 leukemia): 36.8 µM
GI50 (RXF 393 renal): 13 µM
TGI (RXF 393 renal): 34.2 µM
GI50 (SF-268 CNS): 22.4 µM
TGI (SF-268 CNS): 82 µM
GI50 (SF-295 CNS): 13.5 µM
TGI (SF-295 CNS): 30.9 µM
GI50 (SF-539 CNS): 21.9 µM
TGI (SF-539 CNS): 48 µM
GI50 (SK-MEL-2 melanoma): 18.5 µM
TGI (SK-MEL-2 melanoma): 45.5 µM
GI50 (SK-MEL-28 melanoma): 16.9 µM
TGI (SK-MEL-28 melanoma): 33.4 µM
GI50 (SK-MEL-5 melanoma): 8.8 µM
TGI (SK-MEL-5 melanoma): 21.1 µM
GI50 (SK-OV-3 ovarian): 36.2 µM
TGI (SK-OV-3 ovarian): > 100 µM
GI50 (SN12C renal): 33.5 µM
TGI (SN12C renal): > 100 µM
GI50 (SNB-19 CNS): 33.9 µM
TGI (SNB-19 CNS): > 100 µM
GI50 (SNB-75 CNS): 19.1 µM
TGI (SNB-75 CNS): 63.1 µM
GI50 (SR leukemia): 31.6 µM
TGI (SR leukemia): 83.5 µM
GI50 (SW-620 colon): 25.8 µM
TGI (SW-620 colon): 72.4 µM
GI50 (T-47D breast): 5.24 µM
TGI (T-47D breast): 27.8 µM
GI50 (TK-10 renal): 41 µM
TGI (TK-10 renal): > 100 µM
GI50 (U251 CNS): 25.2 µM
TGI (U251 CNS): > 100 µM
GI50 (UACC-257 melanoma): 18.6 µM
TGI (UACC-257 melanoma): 48 µM
GI50 (UACC-62 melanoma): 11.8 µM
TGI (UACC-62 melanoma): 27.9 µM
GI50 (UO-31 renal): 21.4 µM
TGI (UO-31 renal): 55.6 µM
